In one data set the target is Estrogen receptor beta (Homo sapiens, UniProt Q92731). Kind of data set: Binding affinity to human ERbeta assessed as inhibition constant incubated under dark condition for 2 hrs by competitive fluorometric binding assay.
Data set [1] deals with MCF7. Kind of data set: Anti-proliferative activity against ERalpha positive human MCF7 cells incubated for 96 hrs by CCK8 assay. To be noted: MCF7, 96 h.
Data set [2] can be described thus: Anti-proliferative activity against human MCF-10A cells incubated for 96 hrs by CCK8 assay. The class given is toxicity, cell-based.
In a further data set the target is T1, Aromatase (Homo sapiens, UniProt P11511).
T1 sequence (P11511 whole entry): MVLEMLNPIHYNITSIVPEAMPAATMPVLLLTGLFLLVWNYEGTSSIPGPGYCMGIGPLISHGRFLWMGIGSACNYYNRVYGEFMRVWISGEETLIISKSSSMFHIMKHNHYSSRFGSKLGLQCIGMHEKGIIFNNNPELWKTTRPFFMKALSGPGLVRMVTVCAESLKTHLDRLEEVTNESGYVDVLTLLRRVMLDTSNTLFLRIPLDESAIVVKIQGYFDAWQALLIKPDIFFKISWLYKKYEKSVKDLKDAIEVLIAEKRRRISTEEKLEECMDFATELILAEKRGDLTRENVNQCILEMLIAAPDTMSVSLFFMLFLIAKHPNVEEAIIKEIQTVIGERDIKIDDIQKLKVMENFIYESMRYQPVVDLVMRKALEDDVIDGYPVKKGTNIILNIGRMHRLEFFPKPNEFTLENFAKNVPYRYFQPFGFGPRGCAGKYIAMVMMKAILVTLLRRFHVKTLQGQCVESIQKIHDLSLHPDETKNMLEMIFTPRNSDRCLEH
As to the kind of experiment: Inhibition of recombinant human aromatase using ARO substrate/NADP+ mixture by fluorescence assay.

The target of data set [3] is T2, von Hippel-Lindau disease tumor suppressor/Aromatase (Homo sapiens, UniProt P11511+P40337). Kind of data set: PROTAC activity at human ARO/VHL E3 ligase in human MCF-7 cells assessed as degradation of ARO at 1 uM incubated for 24 hrs by Western blot analysis. The class given is cell-based. The conditions noted are these: mcf7, 24 h.
Data set [4] deals with T2, von Hippel-Lindau disease tumor suppressor/Aromatase. As to the kind of experiment: PROTAC activity at human ARO/VHL E3 ligase in human MCF-7 cells assessed as degradation of ARO incubated for 24 hrs by Western blot analysis. In kind it is cell-based. The conditions noted are these: mcf7, 24 h. On the technique in general: A western blot detects proteins with antibodies after separation by electrophoresis.

Data set [5] has the same target. As to the kind of experiment: PROTAC activity at human ARO/VHL E3 ligase in human MCF-7 cells assessed as degradation of ARO at 1 uM incubated for 24 hrs in presence of MG132 by Western blot analysis. The conditions noted are these: mcf7, 24 h. The class given is cell-based.
The test system of data set [6] is MCF7. Kind of data set: Induction of cell cycle arrest in human MCF7 cells assessed as accumulation of cells at G2/M phase at 5 uM incubated for 48 hrs by flow cytometry (reference value: 54.10%). In kind it is functional. (Flow cytometry measures light scatter and fluorescence of single cells or particles in a stream.)
The subject of data set [7] is MCF7. As to the kind of experiment: Antiproliferative activity against human resistant MCF7 cells harboring ERalpha Y537S mutant at LBD assessed as cell viability incubated for 96 hrs by CCK8 assay. To be noted: MCF7, 96 h. Background: Tetrazolium dyes change colour on reduction, which living cells bring about.
The subject of data set [8] is MCF7. As to the kind of experiment: Antiproliferative activity against human resistant MCF7 cells harboring ERalpha D538G mutant at LBD assessed as cell viability incubated for 96 hrs by CCK8 assay. The conditions noted are these: MCF7, 96 h.
The subject of data set [9] is MCF7. Kind of data set: Antiproliferative activity against human resistant MCF7 cells harboring EGFR assessed as cell viability incubated for 96 hrs by CCK8 assay. The conditions noted are these: MCF7, 96 h.
In data set [10] the test system is MCF7. As to the kind of experiment: Reduction in ERS1 mRNA expression in resistant human MCF7 cells harboring EGFR at 5 uM by real-time quantitative polymerase chain reaction (RT-qPCR) analysis. In kind it is functional, cell-based.
For data set [11], the system named is MCF7. As to the kind of experiment: Reduction in MYC mRNA expression in resistant human MCF7 cells harboring EGFR at 5 uM by real-time quantitative polymerase chain reaction (RT-qPCR) analysis. The class given is functional, cell-based.
Data set [12] concerns MCF7. Kind of data set: Reduction in ERS1 mRNA expression in resistant human MCF7 cells harboring ERalpha D538G mutant at 5 uM by real-time quantitative polymerase chain reaction (RT-qPCR) analysis. The class given is functional, cell-based.
Data set [13] relates to MCF7. Kind of data set: Reduction in MYC mRNA expression in resistant human MCF7 cells harboring ERalpha D538G mutant at 5 uM by real-time quantitative polymerase chain reaction (RT-qPCR) analysis. The class given is functional, cell-based.
Data set [14] concerns MCF7. As to the kind of experiment: Reduction in ERS1 mRNA expression in resistant human MCF7 cells harboring ERalpha Y537S mutant at 5 uM by real-time quantitative polymerase chain reaction (RT-qPCR) analysis. The class given is functional, cell-based.
Data set [15] has as its system MCF7. Kind of data set: Reduction in MYC mRNA expression in resistant human MCF7 cells harboring ERalpha Y537S mutant at 5 uM by real-time quantitative polymerase chain reaction (RT-qPCR) analysis. In kind it is functional, cell-based.
Data set [16] relates to MCF7. As to the kind of experiment: Induction of degradation of MYC protein in human MCF7 cells at 0.5 to 5 uM by Western blot analysis. In kind it is functional, cell-based. To be noted: dose 0.5-5 µM.
Data set [17] deals with MCF7. Kind of data set: Induction of degradation of MYC protein in human MCF7 cells harboring ERalpha D538G mutant at 0.5 to 5 uM by Western blot analysis. In kind it is functional, cell-based. The conditions noted are these: dose 0.5-5 µM.
The subject of data set [18] is MCF7. As to the kind of experiment: Induction of degradation of MYC protein in human MCF7 cells harboring ERalpha Y537S mutant at 0.5 to 5 uM by Western blot analysis. In kind it is functional, cell-based. To be noted: dose 0.5-5 µM.
The test system of data set [19] is MCF7. Kind of data set: Induction of degradation of MYC protein in human MCF7 cells harboring EGFR at 0.5 to 5 uM by Western blot analysis. The class given is functional, cell-based. To be noted: dose 0.5-5 µM.
Data set [20] has as its system MCF7. As to the kind of experiment: Antitumor activity against human MCF7 cells xenografted in Balb/c mouse model assessed as tumor growth inhibition at 5 mg/kg, ip every other day measured upto 20 days. The class given is functional, organism-based. To be noted: time <= 20.0 day.
A short description of data set [21]: Toxicity in Balb/c mouse xenografted with human MCF7 cells assessed as body weight loss at 5 mg/kg, ip every other day measured upto 20 days. To be noted: in vivo, 480 h, time < 20 day. The class given is organism-based.
Data set [22] concerns MCF7. As to the kind of experiment: In vivo PROTAC activity in ERalpha/VHL E3 ligase in human MCF7 cell xenografted in Balb/c mouse model assessed as reduction in ERalpha level in tumor at 5 mg/kg, ip every other day measured upto 20 days. In kind it is functional, organism-based. The conditions noted are these: time <= 20.0 day.
In data set [23] the test system is MCF7. Kind of data set: In vivo PROTAC activity in aromatase/VHL E3 ligase in human MCF7 cell xenografted in Balb/c mouse model assessed as reduction in ARO level in tumor at 5 mg/kg, ip every other day measured upto 20 days. To be noted: time <= 20.0 day. In kind it is functional, organism-based.
For data set [24], the system named is MCF7. Kind of data set: In vivo antitumor activity against human MCF7 cells xenografted in Balb/c mouse model assessed as reduction in number of Ki67 positive cells in tumor at 5 mg/kg, ip every other day measured upto 20 days. The class given is functional, organism-based. To be noted: time <= 20.0 day.
The nature of data set [25]: Toxicity in Balb/c mouse xenografted with human MCF7 cells assessed as cellular morphology in heart at 5 mg/kg, ip every other day measured upto 20 days. In kind it is organism-based. To be noted: in vivo, 480 h, time < 20 day.
Data set [26] in a line: Toxicity in Balb/c mouse xenografted with human MCF7 cells assessed as cellular morphology in liver at 5 mg/kg, ip every other day measured upto 20 days. The class given is organism-based. The conditions noted are these: in vivo, 480 h, time < 20 day.
Data set [27] can be described thus: Toxicity in Balb/c mouse xenografted with human MCF7 cells assessed as cellular morphology in spleen at 5 mg/kg, ip every other day measured upto 20 days. The class given is organism-based. To be noted: in vivo, 480 h, time < 20 day.
A short description of data set [28]: Toxicity in Balb/c mouse xenografted with human MCF7 cells assessed as cellular morphology in kidney at 5 mg/kg, ip every other day measured upto 20 days. The class given is organism-based. To be noted: in vivo, 480 h, time < 20 day.
Data set [29] has as its target T2, von Hippel-Lindau disease tumor suppressor/Aromatase. Kind of data set: PROTAC activity at human ARO/VHL E3 ligase in resistant human MCF-7 cells harboring EGFR assessed as degradation of ARO at 0.5 to 10 uM incubated for 24 hrs by Western blot analysis. The class given is cell-based. To be noted: mcf7, 24 h, dose 0.5-10 µM.
Data set [30] deals with MCF7. As to the kind of experiment: Reduction in ERS1 mRNA expression in resistant human MCF7 cells at 5 uM by real-time quantitative polymerase chain reaction (RT-qPCR) analysis. In kind it is functional, cell-based.
Data set [31] concerns MCF7. As to the kind of experiment: Reduction in MYC mRNA expression in resistant human MCF7 cells at 5 uM by real-time quantitative polymerase chain reaction (RT-qPCR) analysis. In kind it is functional, cell-based.

This note sets out measurements from ChEMBL document CHEMBL5512683, “Discovery of Novel ERα and Aromatase Dual-Targeting PROTAC Degraders to Overcome Endocrine-Resistant Breast Cancer” (J Med Chem, 2024).

The term Ki denotes the dissociation constant of the complex between target and ligand, obtained from inhibition or displacement. One may read the IC50 as the concentration needed to halve the response being measured.

Activity calls are given as the source filed them. No cut-off for these calls is given here.

T2 sequence (P40337 whole entry, one chain of several): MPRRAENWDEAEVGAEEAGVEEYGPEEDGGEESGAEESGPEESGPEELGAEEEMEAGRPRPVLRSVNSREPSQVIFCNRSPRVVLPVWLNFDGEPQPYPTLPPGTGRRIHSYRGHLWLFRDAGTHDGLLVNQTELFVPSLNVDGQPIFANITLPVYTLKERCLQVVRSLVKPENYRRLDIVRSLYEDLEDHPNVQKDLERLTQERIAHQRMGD
Sequence of Estrogen receptor beta (Q92731 whole entry): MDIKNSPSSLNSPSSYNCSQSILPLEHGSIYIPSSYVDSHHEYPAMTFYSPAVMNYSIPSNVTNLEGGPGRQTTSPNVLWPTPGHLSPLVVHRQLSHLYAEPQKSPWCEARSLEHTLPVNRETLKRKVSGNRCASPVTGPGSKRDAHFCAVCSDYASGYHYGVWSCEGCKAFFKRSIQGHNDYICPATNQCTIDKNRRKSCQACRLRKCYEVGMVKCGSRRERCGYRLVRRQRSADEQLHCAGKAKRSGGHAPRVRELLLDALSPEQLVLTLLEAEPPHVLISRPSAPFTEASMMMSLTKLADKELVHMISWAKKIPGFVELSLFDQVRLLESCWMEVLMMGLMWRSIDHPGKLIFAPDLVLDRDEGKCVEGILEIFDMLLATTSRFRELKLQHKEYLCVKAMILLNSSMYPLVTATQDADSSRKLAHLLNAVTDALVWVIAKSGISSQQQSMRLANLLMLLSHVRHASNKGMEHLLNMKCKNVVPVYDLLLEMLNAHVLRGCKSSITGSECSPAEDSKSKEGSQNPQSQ

In the case of `Cc1ncsc1-c1ccc([C@H](C)NC(=O)[C@@H]2C[C@@H](O)CN2C(=O)[C@@H](NC(=O)CCCCCOc2ccc(N(CC(F)(F)F)S(=O)(=O)C3CC4OC3C(c3ccc(-n5ccnc5)cc3)=C4c3ccc(O)cc3)cc2)C(C)(C)C)cc1` (some centres not stated), the Ki at Estrogen receptor beta is more than 79000 nM. The IC50 in the data set with MCF7 [1] came to 540 nM; on Aromatase, 4600 nM; in the data set on MCF7 [7] it was 2300 nM; in the data set with MCF7 [8], 310 nM; in the data set with MCF7 [9], 75 nM. The IC50 at 96 h in data set [2] was more than 100000 nM. Besides, the Activity result is reported as “Active” in data set [3]; “Dose-Dependent Effect” in data set [4]; “Not Active” in [5]; 66.31% in the data set with MCF7 [6]; “Non-Toxic” in [21]; “Non-Toxic” in [25]. Moreover, the Activity entry in data set [26], in data set [27] and in data set [28] was “Non-Toxic” throughout. For the same compound, the result in the data set with MCF7 [10], in the data set with MCF7 [11], with MCF7 [12], in the data set with MCF7 [13], with MCF7 [14] and with MCF7 [15] was Active. Further, the outcome in the data set on MCF7 [16], in the data set with MCF7 [20], in the data set with MCF7 [22], in the data set on MCF7 [23] and in the data set with MCF7 [24] was Active. The outcome in the data set with MCF7 [17], with MCF7 [18] and in the data set with MCF7 [19] was inactive.
Take `Cc1ncsc1-c1ccc([C@H](C)NC(=O)[C@@H]2C[C@@H](O)CN2C(=O)[C@@H](NC(=O)COCCOCCOc2ccc(N(CC(F)(F)F)S(=O)(=O)C3CC4OC3C(c3ccc(-n5ccnc5)cc3)=C4c3ccc(O)cc3)cc2)C(C)(C)C)cc1` (some centres not stated): the IC50 in the data set on MCF7 [1] came to 350 nM; on Aromatase, 320 nM; with MCF7 [7] it was 2100 nM; in the data set with MCF7 [8], 10000 nM; in the data set with MCF7 [9], 4400 nM. In data set [2], this compound came in with an IC50 at 96 h of more than 100000 nM. Besides, the Activity result in data set [3] is reported as “Active”; in data set [4], “Dose-Dependent Effect”; in data set [29], “Active”. Further, the result with MCF7 [10], in the data set on MCF7 [12], in the data set with MCF7 [14], in the data set on MCF7 [30] and with MCF7 [31] was inactive. Moreover, the outcome in the data set on MCF7 [11], in the data set with MCF7 [13] and in the data set on MCF7 [15] was Active.
